{"source": "ChEMBL document CHEMBL1201862", "about": "“PubChem BioAssay data set” (2004)", "test_in_all_cases": "growth of human tumour cells (NCI), 48 h", "key": {"M19-MEL": {"system": "M19-MEL"}, "OVCAR-3": {"system": "OVCAR-3"}, "EKVX": {"system": "EKVX"}, "UO-31": {"system": "UO-31"}, "SNB-75": {"system": "SNB-75"}, "DLD-1": {"system": "DLD-1"}, "KM-20L2": {"system": "KM-20L2"}, "XF498": {"system": "XF498"}, "NCI-H23": {"system": "NCI-H23"}, "M14": {"system": "M14"}, "UACC-62": {"system": "UACC-62"}, "NCI-H460": {"system": "NCI-H460"}, "IGROV-1": {"system": "IGROV-1"}, "SNB-19": {"system": "SNB-19"}, "HL-60": {"system": "HL-60"}, "K562": {"system": "K562"}, "SK-MEL-5": {"system": "SK-MEL-5"}, "786-0": {"system": "786-0"}, "MOLT-4": {"system": "MOLT-4"}, "SW-620": {"system": "SW-620"}, "UACC-257": {"system": "UACC-257"}, "RXF 393": {"system": "RXF 393"}, "CCRF-CEM": {"system": "CCRF-CEM"}, "CAKI-1": {"system": "CAKI-1"}, "LOX IMVI": {"system": "LOX IMVI"}, "A549": {"system": "A549"}, "SF-268": {"system": "SF-268"}, "Malme-3M": {"system": "Malme-3M"}, "COLO 205": {"system": "COLO 205"}, "OVCAR-8": {"system": "OVCAR-8"}, "HCC 2998": {"system": "HCC 2998"}, "ACHN": {"system": "ACHN"}, "SK-OV-3": {"system": "SK-OV-3"}, "SN12C": {"system": "SN12C"}, "HCT-15": {"system": "HCT-15"}, "NCI-H522": {"system": "NCI-H522"}, "HOP-18": {"system": "HOP-18"}, "TK-10": {"system": "TK-10"}, "SF-539": {"system": "SF-539"}, "NCI-H226": {"system": "NCI-H226"}, "SF-295": {"system": "SF-295"}, "OVCAR-5": {"system": "OVCAR-5"}, "LXFL 529": {"system": "LXFL 529"}, "SK-MEL-2": {"system": "SK-MEL-2"}, "HT-29": {"system": "HT-29"}, "DMS-273": {"system": "DMS-273"}, "KM12": {"system": "KM12"}, "OVCAR-4": {"system": "OVCAR-4"}, "HOP-62": {"system": "HOP-62"}, "RPMI-8226": {"system": "RPMI-8226"}, "A498": {"system": "A498"}, "SK-MEL-28": {"system": "SK-MEL-28"}}, "note": "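Results reflect a 48-hour exposure of cells in 96-well plates to compound at five concentrations. GI50 = concentration required for 50% inhibition of growth.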 Calls of active or inactive are those of the source. Rule as the data show it: active = GI50 up to about 1.1 µM and inactive = higher.", "data": [{"molecule": "Cc1ccc(C2=Nc3ccccc3SC(c3cccc4c3OCO4)C2)cc1", "note": "(configuration not stated)", "values": [{"measurement": "GI50", "setting": "M19-MEL", "result": "19.8 µM (inactive)"}, {"measurement": "GI50", "setting": "OVCAR-3", "result": "14.8 µM (inactive)"}, {"measurement": "GI50", "setting": "EKVX", "result": "21.1 µM (inactive)"}, {"measurement": "GI50", "setting": "UO-31", "result": "14.1 µM (inactive)"}, {"measurement": "GI50", "setting": "SNB-75", "result": "7.94 µM (inactive)"}, {"measurement": "GI50", "setting": "DLD-1", "result": "27.9 µM (inactive)"}, {"measurement": "GI50", "setting": "KM-20L2", "result": "21.3 µM (inactive)"}, {"measurement": "GI50", "setting": "XF498", "result": "15.5 µM (inactive)"}, {"measurement": "GI50", "setting": "NCI-H23", "result": "16.7 µM (inactive)"}, {"measurement": "GI50", "setting": "M14", "result": "18 µM (inactive)"}, {"measurement": "GI50", "setting": "UACC-62", "result": "20.3 µM (inactive)"}, {"measurement": "GI50", "setting": "NCI-H460", "result": "31.3 µM (inactive)"}, {"measurement": "GI50", "setting": "IGROV-1", "result": "16.7 µM (inactive)"}, {"measurement": "GI50", "setting": "SNB-19", "result": "16.1 µM (inactive)"}, {"measurement": "GI50", "setting": "HL-60", "result": "17.4 µM (inactive)"}, {"measurement": "GI50", "setting": "K562", "result": "14.8 µM (inactive)"}, {"measurement": "GI50", "setting": "SK-MEL-5", "result": "16.2 µM (inactive)"}, {"measurement": "GI50", "setting": "786-0", "result": "19 µM (inactive)"}, {"measurement": "GI50", "setting": "MOLT-4", "result": "17.9 µM (inactive)"}, {"measurement": "GI50", "setting": "SW-620", "result": "19.1 µM (inactive)"}, {"measurement": "GI50", "setting": "UACC-257", "result": "18 µM (inactive)"}, {"measurement": "GI50", "setting": "RXF 393", "result": "> 10 µM (inactive)"}, {"measurement": "GI50", "setting": "CCRF-CEM", "result": "15.7 µM (inactive)"}, {"measurement": "GI50", "setting": "CAKI-1", "result": "16.1 µM (inactive)"}, {"measurement": "GI50", "setting": "LOX IMVI", "result": "16.6 µM (inactive)"}, {"measurement": "GI50", "setting": "A549", "result": "23.9 µM (inactive)"}, {"measurement": "GI50", "setting": "SF-268", "result": "21.1 µM (inactive)"}, {"measurement": "GI50", "setting": "Malme-3M", "result": "24.1 µM (inactive)"}, {"measurement": "GI50", "setting": "COLO 205", "result": "18.3 µM (inactive)"}, {"measurement": "GI50", "setting": "OVCAR-8", "result": "21.2 µM (inactive)"}, {"measurement": "GI50", "setting": "HCC 2998", "result": "20.9 µM (inactive)"}, {"measurement": "GI50", "setting": "ACHN", "result": "20.4 µM (inactive)"}, {"measurement": "GI50", "setting": "SK-OV-3", "result": "35.8 µM (inactive)"}, {"measurement": "GI50", "setting": "SN12C", "result": "19.5 µM (inactive)"}, {"measurement": "GI50", "setting": "HCT-15", "result": 21.1, "unit": "µM"}, {"measurement": "GI50", "setting": "NCI-H522", "result": "13.9 µM (inactive)"}, {"measurement": "GI50", "setting": "HOP-18", "result": "13.5 µM (inactive)"}, {"measurement": "GI50", "setting": "TK-10", "result": "21.2 µM (inactive)"}, {"measurement": "GI50", "setting": "SF-539", "result": "20 µM (inactive)"}, {"measurement": "GI50", "setting": "NCI-H226", "result": "18.1 µM (inactive)"}, {"measurement": "GI50", "setting": "SF-295", "result": "18.7 µM (inactive)"}, {"measurement": "GI50", "setting": "OVCAR-5", "result": "21.8 µM (inactive)"}, {"measurement": "GI50", "setting": "LXFL 529", "result": "15 µM (inactive)"}, {"measurement": "GI50", "setting": "SK-MEL-2", "result": "20.3 µM (inactive)"}, {"measurement": "GI50", "setting": "HT-29", "result": "16.9 µM (inactive)"}, {"measurement": "GI50", "setting": "DMS-273", "result": "19.7 µM (inactive)"}, {"measurement": "GI50", "setting": "KM12", "result": "15.7 µM (inactive)"}, {"measurement": "GI50", "setting": "OVCAR-4", "result": "15.5 µM (inactive)"}, {"measurement": "GI50", "setting": "HOP-62", "result": "33.1 µM (inactive)"}, {"measurement": "GI50", "setting": "RPMI-8226", "result": "17.7 µM (inactive)"}, {"measurement": "GI50", "setting": "A498", "result": "14.7 µM (inactive)"}, {"measurement": "GI50", "setting": "SK-MEL-28", "result": "17.6 µM (inactive)"}]}]}
